Test results reported in ChEMBL document CHEMBL4376834, “Discovery of 4H-Chromen-4-one Derivatives as a New Class of Selective Rho Kinase (ROCK) Inhibitors, which Showed Potent Activity in ex Vivo Diabetic Retinopathy Models” (J Med Chem, 2019).

What was measured:
[1] = Inhibition of recombinant full length human PKBalpha S478G mutant using GRPRTSSFAEGKK as substrate incubated for 40 mins in presence of [gamma33P]ATP by radiometric scintillation counting analysis
[2] = target: Serine-protein kinase ATM (Homo sapiens, UniProt Q13315); assay: Inhibition of recombinant full-length human ATM using GST-cMyc-p53 as substrate measured after 40 mins by ELISA
[3] = target: Eukaryotic translation initiation factor 2-alpha kinase 1 (Homo sapiens, UniProt Q9BQI3); assay: Inhibition of human recombinant HRI (140 to end residues) using RSRSRSRSRSRSR as substrate after 120 mins by [gamma-33ATP] radiometric assay
[4] = target: Testis-specific serine/threonine-protein kinase 2 (Homo sapiens, UniProt Q96PF2); assay: Inhibition of recombinant full-length human TSSK2 using KKKVSRSGLYRSP as substrate incubated for 40 mins in presence of [gamma33P]ATP by radiometric scintillation counting analysis
[5] = target: Insulin receptor (Homo sapiens, UniProt P06213); assay: Inhibition of human recombinant activated IR (1005 to 1310 residues) using KKSRGDYMTMQIG as substrate after 40 mins by [gamma-33ATP]by radiometric scintillation counting analysis
[6] = target: Mitogen-activated protein kinase 11 (Homo sapiens, UniProt Q15759); assay: Inhibition of recombinant human full length SAPK2b using myelin basic protein as substrate incubated for 40 mins in presence of [gamma33P]ATP by radiometric scintillation counting analysis
[7] = target: Dual specificity mitogen-activated protein kinase kinase 7 (Homo sapiens, UniProt O14733); assay: Inhibition of recombinant human MKK7 (2 to end residues) using inactive JNK1a1 as substrate incubated for 40 mins by radiometric scintillation counting analysis
[8] = target: Interleukin-1 receptor-associated kinase 1 (Homo sapiens, UniProt P51617); assay: Inhibition of human recombinant IRAK1 (194 to end residues) using myelin basic protein as substrate after 40 mins by [gamma-33ATP] by radiometric scintillation counting analysis
[9] = target: Ribosomal protein S6 kinase alpha-2 (Homo sapiens, UniProt Q15349); assay: Inhibition of recombinant full length human Rsk3 using KKKNRTLSVA as substrate incubated for 40 mins in presence of [gamma33P]ATP by radiometric scintillation counting analysis
[10] = target: Platelet-derived growth factor receptor alpha (Homo sapiens, UniProt P16234); assay: Inhibition of human PDGFRalpha (550 to end residues) using poly(Glu, Tyr) 4:1 as substrate measured after 40 mins in presence of [gamma33P]ATP by radiometric scintillation counting analysis
[11] = target: 5'-AMP-activated protein kinase catalytic subunit alpha-1 (Homo sapiens, UniProt Q13131); assay: Inhibition of human full length AMPKalpha1 recombinant using AMARAASAAALAR as substrate incubated for 40 mins in presence of [gamma-33ATP] by radiometric scintillation counting analysis
[12] = target: SRSF protein kinase 2 (Homo sapiens, UniProt P78362); assay: Inhibition of recombinant human SRPK2 (46 to end residues) using RSRSRSRSRSRSRSR as substrate incubated for 40 mins in presence of [gamma33P]ATP by radiometric scintillation counting analysis
[13] = target: Tau-tubulin kinase 2 (Homo sapiens, UniProt Q6IQ55); assay: Inhibition of recombinant human TTBK2 (1 to331 residues) using casein as substrate incubated for 40 mins in presence of [gamma33P]ATP by radiometric scintillation counting analysis
[14] = target: Death-associated protein kinase 2 (Homo sapiens, UniProt Q9UIK4); assay: Inhibition of recombinant full length human DAPK2 using Calmodulin as substrate incubated 40 mins in presence of [gamma-33ATP] by radiometric scintillation counting analysis
[15] = target: Non-receptor tyrosine-protein kinase TYK2 (Homo sapiens, UniProt P29597); assay: Inhibition of recombinant human TYK2 (875 to end residues) using GGMEDIYFEFMGG as substrate incubated for 40 mins in presence of [gamma33P]ATP by radiometric scintillation counting analysis
[16] = target: Wee1-like protein kinase (Homo sapiens, UniProt P30291); assay: Inhibition of recombinant human WEE1 (214 to end residues) using LSNLYHQGKFLQT as substrate incubated for 40 mins in presence of [gamma33P]ATP by radiometric scintillation counting analysis
[17] = target: NT-3 growth factor receptor (Homo sapiens, UniProt Q16288); assay: Inhibition of recombinant human TRKC (510 to end residues) using GEEPLYWSFPAKK as substrate incubated for 40 mins in presence of [gamma33P]ATP by radiometric scintillation counting analysis
[18] = target: Protein kinase C zeta type (Homo sapiens, UniProt Q05513); assay: Inhibition of recombinant human PKCzeta (2 to end residues) using ERMRPRKRQGSVRR as substrate incubated for 40 mins in presence of [gamma33P]ATP by radiometric scintillation counting analysis
[19] = target: Proto-oncogene tyrosine-protein kinase receptor Ret (Homo sapiens, UniProt P07949, V804L); assay: Inhibition of recombinant human Ret V804L mutant (658 to end residues) using KKKVSRSGLYRSP as substrate incubated for 40 mins in presence of [gamma33P]ATP by radiometric scintillation counting analysis
[20] = Inhibition of recombinant full length human JNK2alpha2 S51N mutant using ATF2 as substrate after 40 mins by [gamma-33ATP] by radiometric scintillation counting analysis
[21] = Apparent permeability in dog MDCK cells incubated for 90 mins by LC-MS analysis; type: ADME, cell-based, Canis lupus familiaris
[22] = target: Muscle, skeletal receptor tyrosine-protein kinase (Homo sapiens, UniProt O15146); assay: Inhibition of recombinant human MUSK (530 to end residues) using myelin basic protein as substrate measured after 40 mins in presence of [gamma33P]ATP by radiometric scintillation counting analysis
[23] = target: Receptor tyrosine-protein kinase erbB-4 (Homo sapiens, UniProt Q15303); assay: Inhibition of recombinant human ERBB4 (706 to 991 residues) using poly(Glu, Tyr) 4:1 as substrate after 40 mins in presence of [gamma-33ATP] by radiometric scintillation counting analysis
[24] = target: Protein kinase C beta type (Homo sapiens, UniProt P05771); assay: Inhibition of recombinant human PKCbeta2 (2 to end residues) using histone H1 as substrate incubated for 40 mins in presence of [gamma33P]ATP by radiometric scintillation counting analysis
[25] = target: Cyclin-dependent kinase 5/CDK5 activator 1 (Homo sapiens, UniProt Q00535); assay: Inhibition of recombinant full length human CDK5/p25 using histone H1 as substrate incubated for 40 mins in presence of [gamma-33ATP] by radiometric scintillation counting analysis; type: protein-complex assay
[26] = target: G protein-coupled receptor kinase 5 (Homo sapiens, UniProt P34947); assay: Inhibition of recombinant full length human GRK5 using casein as substrate after 40 mins in presence of [gamma-33ATP] by radiometric scintillation counting analysis
[27] = target: Tyrosine-protein kinase Lck (Homo sapiens, UniProt P06239); assay: Inhibition of recombinant full length human LCK using […] as substrate after 40 mins in presence of [gamma-33ATP] by radiometric scintillation counting analysis
Sequence of Tyrosine-protein kinase Lck (P06239 whole entry): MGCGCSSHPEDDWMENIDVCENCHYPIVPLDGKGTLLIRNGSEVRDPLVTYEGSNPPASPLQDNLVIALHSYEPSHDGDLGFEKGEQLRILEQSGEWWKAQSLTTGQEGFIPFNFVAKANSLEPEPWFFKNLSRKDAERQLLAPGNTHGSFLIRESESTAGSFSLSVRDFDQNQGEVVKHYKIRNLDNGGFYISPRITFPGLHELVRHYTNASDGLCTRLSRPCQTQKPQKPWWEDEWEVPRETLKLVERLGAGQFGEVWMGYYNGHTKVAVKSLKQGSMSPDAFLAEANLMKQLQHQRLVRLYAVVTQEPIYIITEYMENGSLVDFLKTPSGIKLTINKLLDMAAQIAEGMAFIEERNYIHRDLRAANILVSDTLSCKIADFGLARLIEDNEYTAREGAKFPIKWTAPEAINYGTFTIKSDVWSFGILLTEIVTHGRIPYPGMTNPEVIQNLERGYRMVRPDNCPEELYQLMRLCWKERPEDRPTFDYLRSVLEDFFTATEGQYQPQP

Sequence of Cyclin-dependent kinase 5/CDK5 activator 1 (Q00535 whole entry): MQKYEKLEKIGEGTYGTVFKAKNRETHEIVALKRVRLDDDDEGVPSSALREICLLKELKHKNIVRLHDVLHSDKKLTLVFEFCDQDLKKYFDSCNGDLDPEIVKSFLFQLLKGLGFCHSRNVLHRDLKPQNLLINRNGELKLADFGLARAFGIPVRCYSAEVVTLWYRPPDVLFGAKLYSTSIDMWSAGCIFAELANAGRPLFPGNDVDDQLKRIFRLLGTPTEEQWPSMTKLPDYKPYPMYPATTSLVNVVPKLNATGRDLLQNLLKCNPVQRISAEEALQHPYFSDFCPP
Sequence of Cyclin-dependent kinase 5/CDK5 activator 1 (Q15078 whole entry, further chain): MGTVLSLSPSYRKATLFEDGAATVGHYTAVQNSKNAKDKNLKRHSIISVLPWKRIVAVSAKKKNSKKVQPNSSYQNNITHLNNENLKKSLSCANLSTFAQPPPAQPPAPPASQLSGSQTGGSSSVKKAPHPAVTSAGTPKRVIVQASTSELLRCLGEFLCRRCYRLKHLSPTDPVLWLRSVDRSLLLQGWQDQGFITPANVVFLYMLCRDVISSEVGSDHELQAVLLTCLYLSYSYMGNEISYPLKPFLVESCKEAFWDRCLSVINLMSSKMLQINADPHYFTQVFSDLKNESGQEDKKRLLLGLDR
Sequence of Mitogen-activated protein kinase 11 (Q15759 whole entry): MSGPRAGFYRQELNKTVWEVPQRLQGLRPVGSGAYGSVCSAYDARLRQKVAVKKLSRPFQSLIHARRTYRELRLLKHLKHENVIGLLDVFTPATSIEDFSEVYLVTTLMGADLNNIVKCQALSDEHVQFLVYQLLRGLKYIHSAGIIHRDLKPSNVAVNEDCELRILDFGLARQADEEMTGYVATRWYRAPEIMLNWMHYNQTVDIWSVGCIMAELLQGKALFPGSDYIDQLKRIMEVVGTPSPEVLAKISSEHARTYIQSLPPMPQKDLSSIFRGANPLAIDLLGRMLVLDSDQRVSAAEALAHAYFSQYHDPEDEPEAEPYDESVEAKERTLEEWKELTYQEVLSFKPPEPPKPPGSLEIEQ
Sequence of Eukaryotic translation initiation factor 2-alpha kinase 1 (Q9BQI3 whole entry): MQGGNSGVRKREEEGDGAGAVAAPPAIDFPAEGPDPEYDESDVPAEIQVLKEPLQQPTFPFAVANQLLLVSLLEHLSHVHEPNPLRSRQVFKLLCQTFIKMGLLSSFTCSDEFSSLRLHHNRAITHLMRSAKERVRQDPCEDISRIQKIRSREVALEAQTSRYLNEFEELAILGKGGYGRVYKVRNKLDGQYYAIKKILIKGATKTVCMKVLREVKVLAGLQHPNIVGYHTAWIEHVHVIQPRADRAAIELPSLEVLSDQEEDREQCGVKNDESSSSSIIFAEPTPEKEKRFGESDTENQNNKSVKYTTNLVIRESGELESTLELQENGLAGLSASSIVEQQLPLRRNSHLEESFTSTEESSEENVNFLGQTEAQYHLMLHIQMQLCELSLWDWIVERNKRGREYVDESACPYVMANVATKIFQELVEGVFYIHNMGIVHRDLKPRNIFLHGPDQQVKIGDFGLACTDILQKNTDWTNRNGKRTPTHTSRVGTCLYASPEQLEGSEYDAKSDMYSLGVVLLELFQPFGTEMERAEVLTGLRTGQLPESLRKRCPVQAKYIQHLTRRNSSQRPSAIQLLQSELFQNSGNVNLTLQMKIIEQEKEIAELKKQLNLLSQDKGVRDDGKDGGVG
Sequence of Ribosomal protein S6 kinase alpha-2 (Q15349 whole entry): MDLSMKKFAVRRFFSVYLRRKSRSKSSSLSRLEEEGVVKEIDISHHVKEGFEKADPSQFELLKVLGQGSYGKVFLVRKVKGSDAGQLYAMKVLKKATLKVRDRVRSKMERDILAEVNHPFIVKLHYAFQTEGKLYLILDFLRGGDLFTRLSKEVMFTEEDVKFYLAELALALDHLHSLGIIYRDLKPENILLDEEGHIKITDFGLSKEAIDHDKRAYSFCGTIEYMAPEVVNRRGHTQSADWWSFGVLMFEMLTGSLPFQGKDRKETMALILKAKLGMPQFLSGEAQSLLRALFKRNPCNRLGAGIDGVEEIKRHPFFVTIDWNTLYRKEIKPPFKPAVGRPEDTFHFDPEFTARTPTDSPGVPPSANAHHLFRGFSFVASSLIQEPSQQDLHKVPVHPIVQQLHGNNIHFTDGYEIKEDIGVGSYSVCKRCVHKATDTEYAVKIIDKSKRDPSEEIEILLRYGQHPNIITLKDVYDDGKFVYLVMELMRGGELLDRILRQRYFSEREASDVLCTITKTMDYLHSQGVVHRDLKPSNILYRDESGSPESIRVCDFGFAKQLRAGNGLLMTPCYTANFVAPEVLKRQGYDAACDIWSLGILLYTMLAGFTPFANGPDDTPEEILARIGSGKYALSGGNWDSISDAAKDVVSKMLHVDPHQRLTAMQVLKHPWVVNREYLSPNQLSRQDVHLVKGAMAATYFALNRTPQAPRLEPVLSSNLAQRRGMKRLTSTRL
Sequence of Tau-tubulin kinase 2 (Q6IQ55 whole entry, the tested form may be a part): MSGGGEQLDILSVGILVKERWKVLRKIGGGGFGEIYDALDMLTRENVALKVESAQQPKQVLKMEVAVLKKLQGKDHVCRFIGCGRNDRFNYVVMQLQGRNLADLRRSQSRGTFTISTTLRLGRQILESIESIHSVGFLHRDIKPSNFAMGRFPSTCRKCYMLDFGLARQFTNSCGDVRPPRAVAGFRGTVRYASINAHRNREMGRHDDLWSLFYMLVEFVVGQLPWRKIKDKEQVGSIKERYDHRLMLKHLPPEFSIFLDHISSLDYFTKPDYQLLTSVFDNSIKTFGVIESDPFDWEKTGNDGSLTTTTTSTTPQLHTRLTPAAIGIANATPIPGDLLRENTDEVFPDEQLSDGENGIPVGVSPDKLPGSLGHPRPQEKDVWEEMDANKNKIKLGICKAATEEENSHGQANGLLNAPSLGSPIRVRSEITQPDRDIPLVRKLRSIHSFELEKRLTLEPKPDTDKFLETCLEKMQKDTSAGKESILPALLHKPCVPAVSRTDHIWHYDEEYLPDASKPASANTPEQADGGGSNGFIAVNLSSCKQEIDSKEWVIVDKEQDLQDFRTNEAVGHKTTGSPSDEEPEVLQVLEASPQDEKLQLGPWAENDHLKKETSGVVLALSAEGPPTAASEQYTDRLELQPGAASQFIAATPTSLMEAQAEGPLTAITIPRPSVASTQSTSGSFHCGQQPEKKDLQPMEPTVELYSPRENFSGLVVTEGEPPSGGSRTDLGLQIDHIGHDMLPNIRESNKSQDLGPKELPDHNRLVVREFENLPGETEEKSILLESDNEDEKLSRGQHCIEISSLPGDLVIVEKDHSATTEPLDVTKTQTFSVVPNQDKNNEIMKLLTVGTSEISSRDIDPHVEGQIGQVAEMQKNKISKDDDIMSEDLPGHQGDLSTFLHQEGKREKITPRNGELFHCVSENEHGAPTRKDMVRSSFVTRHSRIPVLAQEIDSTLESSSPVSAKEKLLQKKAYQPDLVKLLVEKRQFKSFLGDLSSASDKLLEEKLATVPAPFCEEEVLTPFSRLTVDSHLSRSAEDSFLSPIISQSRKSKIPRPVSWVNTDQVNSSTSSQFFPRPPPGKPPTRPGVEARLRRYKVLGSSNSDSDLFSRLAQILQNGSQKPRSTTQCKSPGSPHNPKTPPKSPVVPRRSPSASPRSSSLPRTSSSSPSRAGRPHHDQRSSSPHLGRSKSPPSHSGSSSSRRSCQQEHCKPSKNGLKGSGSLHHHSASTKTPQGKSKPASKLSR
Sequence of Protein kinase C beta type (P05771 whole entry): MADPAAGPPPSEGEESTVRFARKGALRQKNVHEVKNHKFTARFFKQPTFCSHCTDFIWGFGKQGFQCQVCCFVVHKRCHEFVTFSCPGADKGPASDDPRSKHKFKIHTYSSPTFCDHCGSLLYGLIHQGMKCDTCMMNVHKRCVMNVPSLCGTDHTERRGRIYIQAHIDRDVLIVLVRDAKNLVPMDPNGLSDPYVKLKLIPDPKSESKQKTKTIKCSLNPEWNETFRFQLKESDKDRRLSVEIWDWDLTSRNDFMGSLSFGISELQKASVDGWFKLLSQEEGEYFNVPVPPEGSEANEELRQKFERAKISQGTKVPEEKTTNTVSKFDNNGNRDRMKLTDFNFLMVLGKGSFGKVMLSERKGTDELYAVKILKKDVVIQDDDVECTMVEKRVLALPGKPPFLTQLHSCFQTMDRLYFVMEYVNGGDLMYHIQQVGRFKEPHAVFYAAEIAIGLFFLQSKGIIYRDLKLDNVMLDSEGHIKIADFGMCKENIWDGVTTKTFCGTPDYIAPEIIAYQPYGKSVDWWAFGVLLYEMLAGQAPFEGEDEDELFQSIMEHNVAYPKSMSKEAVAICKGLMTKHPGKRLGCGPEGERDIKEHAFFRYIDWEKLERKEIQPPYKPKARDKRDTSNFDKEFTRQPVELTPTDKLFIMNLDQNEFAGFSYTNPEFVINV

## CN(C)c1ccc(C(=O)Nc2cccc(NC(=O)COc3ccc4c(=O)ccoc4c3)c2)cc1
[1]
  IC50: > 10 µM
[2]
  IC50: > 10 µM
[3]
  IC50: > 10 µM
[4]
  IC50: > 10 µM
[5]
  IC50: > 10 µM
[6]
  IC50: > 10 µM
[7]
  IC50: > 10 µM
[8]
  IC50: > 10 µM
[9]
  IC50: > 10 µM
[10]
  IC50: > 10 µM
[11]
  IC50: > 10 µM
[12]
  IC50: > 10 µM
[13]
  IC50: > 10 µM
[14]
  IC50: > 10 µM
[15]
  IC50: > 10 µM
[16]
  IC50: > 10 µM
[17]
  IC50: > 10 µM
[18]
  IC50: > 10 µM
[19]
  IC50: > 10 µM
[20]
  IC50: > 10 µM
[21]
  Papp at 1.5 h: 9.41 ×10⁻⁶ cm/s
[22]
  IC50: > 10 µM
[23]
  IC50: > 10 µM
[24]
  IC50: > 10 µM
[25]
  IC50: > 10 µM
[26]
  IC50: > 10 µM
[27]
  IC50: > 10 µM
